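Tested at 5 concentrations; 48 h exposure; 96-well plates; endpoints linearly interpolated, else capped at highest concentration. Here, GI50 denotes the concentration required for 50% inhibition of growth. TGI denotes the concentration required for complete inhibition of growth.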
Key:
Test in all cases: inhibition of tumour cell growth, NCI panel, 48 h
SK-MEL-28 melanoma = test system: SK-MEL-28 melanoma
ACHN renal = test system: ACHN renal
COLO 205 colon = test system: COLO 205 colon
NCI/ADR-RES ovarian = test system: NCI/ADR-RES ovarian
NCI-H460 lung = test system: NCI-H460 lung
SK-OV-3 ovarian = test system: SK-OV-3 ovarian
SF-268 CNS = test system: SF-268 CNS
OVCAR-5 ovarian = test system: OVCAR-5 ovarian
HL-60(TB) leukemia = test system: HL-60(TB) leukemia
SN12C renal = test system: SN12C renal
HOP-62 NSCLC = test system: HOP-62 NSCLC
RPMI-8226 leukemia = test system: RPMI-8226 leukemia
HCT-15 colon = test system: HCT-15 colon
SK-MEL-2 melanoma = test system: SK-MEL-2 melanoma
OVCAR-3 ovarian = test system: OVCAR-3 ovarian
A549 NSCLC = test system: A549 NSCLC
HT29 colon = test system: HT29 colon
OVCAR-4 ovarian = test system: OVCAR-4 ovarian
T-47D breast = test system: T-47D breast
OVCAR-8 ovarian = test system: OVCAR-8 ovarian
SNB-75 CNS = test system: SNB-75 CNS
UACC-257 melanoma = test system: UACC-257 melanoma
SF-539 CNS = test system: SF-539 CNS
SR leukemia = test system: SR leukemia
CAKI-1 renal = test system: CAKI-1 renal
HCC-2998 colon = test system: HCC-2998 colon
A498 renal = test system: A498 renal
U251 CNS = test system: U251 CNS
SK-MEL-5 melanoma = test system: SK-MEL-5 melanoma
BT-549 breast = test system: BT-549 breast
PC-3 prostate = test system: PC-3 prostate
M14 melanoma = test system: M14 melanoma
HCT-116 colon = test system: HCT-116 colon
MOLT-4 leukemia = test system: MOLT-4 leukemia
EKVX NSCLC = test system: EKVX NSCLC
786-0 renal = test system: 786-0 renal
KM12 colon = test system: KM12 colon
MCF7 breast = test system: MCF7 breast
MDA-MB-435 = test system: MDA-MB-435
HOP-92 NSCLC = test system: HOP-92 NSCLC
NCI-H522 lung = test system: NCI-H522 lung
NCI-H226 lung = test system: NCI-H226 lung
SW-620 colon = test system: SW-620 colon
UO-31 renal = test system: UO-31 renal
RXF 393 renal = test system: RXF 393 renal
K-562 leukemia = test system: K-562 leukemia
TK-10 renal = test system: TK-10 renal
SF-295 CNS = test system: SF-295 CNS
DU-145 prostate = test system: DU-145 prostate

Molecule `Nc1nc(N)c2c(n1)NC(c1ccc(F)cc1)CC(c1ccc(Nc3nc(NCCO)nc(Nc4ccc(Cl)cc4)n3)cc1)=N2` (stereo not drawn) has a GI50 (SK-MEL-28 melanoma) of 1.7 µM, a TGI (SK-MEL-28 melanoma) of 3.18 µM and a GI50 (ACHN renal) of 3.22 µM. It also gave a TGI (ACHN renal) of 17.3 µM, a GI50 (COLO 205 colon) of 1.49 µM and a TGI (COLO 205 colon) of 2.94 µM. The GI50 (NCI/ADR-RES ovarian) was 7.73 µM, the TGI (NCI/ADR-RES ovarian) was > 100 µM and the GI50 (NCI-H460 lung) was 1.71 µM. For the same molecule, the TGI (NCI-H460 lung) was 3.63 µM, the GI50 (SK-OV-3 ovarian) was 12.9 µM and the TGI (SK-OV-3 ovarian) was 25.5 µM. For the same molecule, the GI50 (SF-268 CNS) was 2.85 µM, the TGI (SF-268 CNS) was 12.3 µM and the GI50 (OVCAR-5 ovarian) was 5.1 µM. For the same molecule, the TGI (OVCAR-5 ovarian) was 24.4 µM, the GI50 (HL-60(TB) leukemia) was 0.863 µM and the TGI (HL-60(TB) leukemia) was 3.51 µM. It also gave a GI50 (SN12C renal) of 2.08 µM, a TGI (SN12C renal) of 5.19 µM and a GI50 (HOP-62 NSCLC) of 1.77 µM. It also gave a TGI (HOP-62 NSCLC) of 4.3 µM, a GI50 (RPMI-8226 leukemia) of 1.01 µM and a TGI (RPMI-8226 leukemia) of 3.24 µM. The GI50 (HCT-15 colon) was 1.03 µM, the TGI (HCT-15 colon) was 2.84 µM and the GI50 (SK-MEL-2 melanoma) was 1.67 µM. The TGI (SK-MEL-2 melanoma) was 3.1 µM, the GI50 (OVCAR-3 ovarian) was 1.58 µM and the TGI (OVCAR-3 ovarian) was 3.28 µM. The GI50 (A549 NSCLC) was 3.12 µM, the TGI (A549 NSCLC) was > 100 µM and the GI50 (HT29 colon) was 1.42 µM. For the same molecule, the TGI (HT29 colon) was 3.15 µM, the GI50 (OVCAR-4 ovarian) was 1.93 µM and the TGI (OVCAR-4 ovarian) was 6.43 µM. It also gave a GI50 (T-47D breast) of 1.27 µM, a TGI (T-47D breast) of 3.2 µM and a GI50 (OVCAR-8 ovarian) of 1.16 µM. The TGI (OVCAR-8 ovarian) was 2.81 µM, the GI50 (SNB-75 CNS) was 3.35 µM and the TGI (SNB-75 CNS) was 16 µM. For the same molecule, the GI50 (UACC-257 melanoma) was 1.85 µM, the TGI (UACC-257 melanoma) was 3.52 µM and the GI50 (SF-539 CNS) was 1.56 µM. For the same molecule, the TGI (SF-539 CNS) was 3.15 µM, the GI50 (SR leukemia) was 0.672 µM and the TGI (SR leukemia) was 4.75 µM. It also gave a GI50 (CAKI-1 renal) of 6.14 µM, a TGI (CAKI-1 renal) of 39.6 µM and a GI50 (HCC-2998 colon) of 1.61 µM. For the same molecule, the TGI (HCC-2998 colon) was 3.05 µM, the GI50 (A498 renal) was 3.72 µM and the TGI (A498 renal) was 15.3 µM. For the same molecule, the GI50 (U251 CNS) was 1.37 µM, the TGI (U251 CNS) was 2.73 µM and the GI50 (SK-MEL-5 melanoma) was 1.46 µM. It also gave a TGI (SK-MEL-5 melanoma) of 2.78 µM, a GI50 (BT-549 breast) of 1.56 µM and a TGI (BT-549 breast) of 3.17 µM. For the same molecule, the GI50 (PC-3 prostate) was 1.72 µM, the TGI (PC-3 prostate) was 11.4 µM and the GI50 (M14 melanoma) was 1.66 µM. For the same molecule, the TGI (M14 melanoma) was 3.3 µM, the GI50 (HCT-116 colon) was 1.2 µM and the TGI (HCT-116 colon) was 2.5 µM. It also gave a GI50 (MOLT-4 leukemia) of 0.532 µM, a TGI (MOLT-4 leukemia) of 3.47 µM and a GI50 (EKVX NSCLC) of 1.66 µM. For the same molecule, the TGI (EKVX NSCLC) was 5.35 µM, the GI50 (786-0 renal) was 1.36 µM and the TGI (786-0 renal) was 3.11 µM. For the same molecule, the GI50 (KM12 colon) was 1.68 µM, the TGI (KM12 colon) was 3.71 µM and the GI50 (MCF7 breast) was 0.956 µM. The TGI (MCF7 breast) was 2.43 µM, the GI50 (MDA-MB-435) was 1.7 µM and the TGI (MDA-MB-435) was 3.55 µM. For the same molecule, the GI50 (HOP-92 NSCLC) was 1.25 µM, the TGI (HOP-92 NSCLC) was 3.54 µM and the GI50 (NCI-H522 lung) was 1.43 µM. It also gave a TGI (NCI-H522 lung) of 2.97 µM, a GI50 (NCI-H226 lung) of 2.49 µM and a TGI (NCI-H226 lung) of 7.11 µM. The GI50 (SW-620 colon) was 1.6 µM, the TGI (SW-620 colon) was 3.27 µM and the GI50 (UO-31 renal) was 3.07 µM. For the same molecule, the TGI (UO-31 renal) was 20.4 µM, the GI50 (RXF 393 renal) was 1.17 µM and the TGI (RXF 393 renal) was 2.63 µM. The GI50 (K-562 leukemia) was 0.489 µM, the TGI (K-562 leukemia) was > 100 µM and the GI50 (TK-10 renal) was 4.61 µM. It also gave a TGI (TK-10 renal) of 15.5 µM, a GI50 (SF-295 CNS) of 1.96 µM and a TGI (SF-295 CNS) of 3.75 µM. The GI50 (DU-145 prostate) was 1.75 µM and the TGI (DU-145 prostate) was 3.5 µM.

Reference: PubChem BioAssay (NCI)
